Source: PubChem BioAssay (NCI)
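Exposure lasted 48 hours, with cells grown in 96-well plates and compounds tested at five concentrations. At the GI50, growth is halved. TGI denotes the concentration required for complete inhibition of growth.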

How the values were obtained:
Test in all cases: NCI tumour cell line growth inhibition, 48 h
[1] = system: A498 renal
[2] = system: HOP-92 NSCLC
[3] = system: HT29 colon
[4] = system: NCI/ADR-RES ovarian
[5] = system: RPMI-8226 leukemia
[6] = system: SK-MEL-28 melanoma
[7] = system: SK-OV-3 ovarian
[8] = system: SNB-19 CNS
[9] = system: TK-10 renal
[10] = system: UACC-257 melanoma

Compound	TGI [1]	TGI [2]	TGI [3]	TGI [4]	TGI [5]	TGI [6]	TGI [7]	TGI [8]	TGI [9]	TGI [10]	GI50 [1]	GI50 [2]	GI50 [3]	GI50 [4]	GI50 [5]	GI50 [6]	GI50 [7]	GI50 [8]	GI50 [9]	GI50 [10]
O=C(O)C1C(C(=O)O)C(C(=O)O)C1C(=O)O (stereo not given)	> 100 µM	> 100 µM	> 100 µM	> 100 µM	> 100 µM	> 100 µM	> 100 µM	> 100 µM	> 100 µM	> 100 µM										
COc1ccc(/C(=N/Nc2ccc([N+](=O)[O-])cc2)Sc2cc(Cl)c(C)cc2S(N)(=O)=O)cc1	2.68 µM	8.01 µM	6.89 µM	14.1 µM	13.6 µM	16.6 µM	12.7 µM	20.3 µM	6.73 µM	26.4 µM	0.107 µM	2.47 µM	2.91 µM	5.42 µM	5.11 µM	6.57 µM	5.89 µM	7.06 µM	2.47 µM	13 µM
C[C@]12CC[C@@H]3c4ccc(O)cc4CC[C@H]3[C@@H]1CC[C@@H]2NS(=O)(=O)c1ccc(C(F)(F)F)cc1	2.74 µM	3.28 µM	3.94 µM	5.7 µM	6.79 µM	3.08 µM	6.21 µM	11.6 µM	8.53 µM	7.57 µM	1.25 µM	1.51 µM	2.01 µM	2.17 µM	2.51 µM	1.68 µM	2.53 µM	3.28 µM	3.28 µM	2.59 µM
COC(=O)[C@]12CCC(C)(C)C[C@H]1C1=CC[C@@H]3[C@@]4(C)C/C(=C/c5cccnc5)C(=O)C(C)(C)[C@@H]4CC[C@@]3(C)[C@]1(C)CC2	26.4 µM	8.41 µM	65.9 µM	32.5 µM	6.39 µM	20 µM	> 100 µM	77.4 µM	55.5 µM	42.8 µM	11.6 µM	1.87 µM	5 µM	6.75 µM	2.31 µM	6.89 µM	27.5 µM	15.1 µM	21.4 µM	12.5 µM
